Results from patent publication US10023565B2, “N,N′ substituted piperidinamine compounds, and preparation method and usage thereof” (Institute of Pharmacology and Toxicology Academy of …, priority 2013, dated 2018).

Key:
Format in all cases: cell-based
[1] = tested on: tumor cells and normal cells (12 kinds of cells); experiment: Extended test against tumor cell lines, statements on the whole panel; conditions: 12 kinds of cells, 0.016-4 μM, 72 hours
Experimental: (§1) The compounds of Examples 36/37/40/47/49 were used to carry out extended test against tumor cell lines, wherein 12 kinds of cells were selected, including liver cancer cells, gastric cancer cells, pancreatic cancer cells, colorectal cancer cells, lung cancer cells and normal cells, which were shown in Table 12:
(§2) A 100 mm culture dish with overgrown adherent cells was digested with 1 ml 0.25% trypsin (GIBCO) at 37° C. for 5 min, and the reaction was terminated with 2 ml culture medium (containing 10% FBS, GIBCO). The cells were scattered and collected, after counting, diluted to 1×10^5 cells/ml, and seeded into a 96-well plate at 50 μl/well, 5000 cells/well, excluding the peripheral circle of wells in which no cell was added, but PBS was added, 54 wells in total, and then incubated at 37° C. for 24 hours for adhering.
(§3) The test sample was diluted to final concentration of 4, 1, 0.25, 0.063, 0.016 μM, culture medium was filled in control well, 3 parellel wells were set for each concentration, 50 μl each well, followed by incubation at 37° C. for 72 hours.
(§4) 3) Test after incubation at 37° C. for 72 hours: 50 μL of ATPlite kitsubstrate solution was added in each well, and vibrated for 3 min, followed by placing aside in darkness for 10 min, and then supernatant 100 μl/well was taken and placed on a luminescence test plate; the luminescence test plate that has been fully incubated was placed in a luminescence test instrument, to read luminescence value.
(§5) Cell survival rate (%)=Experimental group RLU/control group RLU×100%. The experimental data were subjected to data analysis and processing by utilizing GraphPad software.

[2] = tested on: six human breast cancer cell strains; experiment: Antitumor activity evaluation, statements on the whole panel; conditions: compound alone
Source text: In antitumor activity evaluation, six human breast cancer cell strains are selected, including BT474, SK-BR3 which are human breast cancer cell strains sensitive to lapatinib, BT/Lap^R1.0, SK/Lap^R1.0 which are human breast cancer cell strains with secondary resistance to lapatinib, MDA-MB-361, MDA-MB-453 which are human breast cancer cell strains with natural resistance tolapatinib.
Antitumor bioactivity evaluation of the compounds of Examples according to the method described below
as §2, with “Cells plating: a” for “A”, “60” for “54”
Addition of the compound and lapatinib: the test sample was diluted to a final concentration of 5 μM, and the culture medium with the corresponding compound solvent concentration was filled in the control well, the compound solvent concentration was kept consistent in each well, 5 parellel wells were set for each concentration, 25 μl each well, 25 μl culture medium (in combined group, 25 μl lapatinib was added till a final concentration of 1 μM) supplemented, followed by incubation at 37° C. for 72 hours.
as §4, with “Test” for “3) Test”, “ATPlite kit substrate” for “ATPlite kitsubstrate”, “on aluminescence” for “on a luminescence”
1. Cell survival rate (%)=Experimental group RLU/control group RLU×100%. The experimental data were subjected to data analysis and processing by utilizing GraphPad software.

COLO205 = experiment: Extended test against tumor cell lines (ATPlite); conditions: COLO205 (colorectal cancer), 72 hours
Experimental: as §1, §2, §3, §4, §5

[3] = tested on: WI-38 (human embryonic lung fibroblast); experiment: Extended test against tumor cell lines (ATPlite); conditions: WI-38 (normal cells), 72 hours
Experimental: as §1, §2, §3, §4, §5

HepG2 = experiment: Extended test against tumor cell lines (ATPlite); conditions: HepG2 (liver cancer), 72 hours
Experimental: as §1, §2, §3, §4, §5

H460 = experiment: Extended test against tumor cell lines (ATPlite); conditions: H460 (lung cancer), 72 hours
Experimental: as §1, §2, §3, §4, §5

N87 = experiment: Extended test against tumor cell lines (ATPlite); conditions: N87 (gastric cancer), 72 hours
Experimental: as §1, §2, §3, §4, §5

Huh-7 = experiment: Extended test against tumor cell lines (ATPlite); conditions: Huh-7 (liver cancer), 72 hours
Experimental: as §1, §2, §3, §4, §5

[4] = tested on: MRC5 (lung epithelial fibroblast); experiment: Extended test against tumor cell lines (ATPlite); conditions: MRC5 (normal cells), 72 hours
Experimental: as §1, §2, §3, §4, §5

BGC823 = experiment: Extended test against tumor cell lines (ATPlite); conditions: BGC823 (gastric cancer), 72 hours
Experimental: as §1, §2, §3, §4, §5

HT-29 = experiment: Extended test against tumor cell lines (ATPlite); conditions: HT-29 (colorectal cancer), 72 hours
Experimental: as §1, §2, §3, §4, §5

MIA-PaCa-2 = experiment: Extended test against tumor cell lines (ATPlite); conditions: MIA-PaCa-2 (pancreatic cancer), 72 hours
Experimental: as §1, §2, §3, §4, §5

Q: CSc1nccc(N2CCC(N(C)Cc3ccc(C#N)cc3)CC2)n1 [Example 36, N-methyl-N-(4-cyanobenzyl)-N-[1-(2-methylthiopyrimidin-4-yl)piperidin-4-yl]amine] was tested. Which “inhibition of tumor cells versus cytotoxicity to normal cells” value [1] did it give?
A: certain inhibition and cytotoxicity to either tumor cells or normal cells, without significant difference

Q: And the “growth inhibition to the six human breast cancer cell strains” value [2]?
A: relatively significant growth inhibition

Q: And the Survival rate (COLO205; 0.016 μM)?
A: 96.7%

Q: What about the Survival rate (COLO205; 0.063 μM) of the same compound?
A: 96.9%

Q: What about the Survival rate (COLO205; 0.25 μM) of the same compound?
A: 95.3%

Q: What about the Survival rate (COLO205; 1 μM) of the same compound?
A: 84.5%

Q: What about the Survival rate (COLO205; 4 μM) of the same compound?
A: 4.9%

Q: And the Survival rate ([3]; 0.016 μM)?
A: 93.9%

Q: And the Survival rate ([3]; 0.063 μM)?
A: 93.7%

Q: And the Survival rate ([3]; 0.25 μM)?
A: 91.5%

Q: And the Survival rate ([3]; 1 μM)?
A: 82.0%

Q: What about the Survival rate ([3]; 4 μM) of the same compound?
A: 51.1%

Q: And the Survival rate (HepG2; 0.016 μM)?
A: 98.8%

Q: What about the Survival rate (HepG2; 0.063 μM) of the same compound?
A: 97%

Q: What about the Survival rate (HepG2; 0.25 μM) of the same compound?
A: 94.7%

Q: And the Survival rate (HepG2; 1 μM)?
A: 77.1%

Q: And the Survival rate (HepG2; 4 μM)?
A: 4.5%

Q: And the Survival rate (H460; 0.016 μM)?
A: 99.4%

Q: What about the Survival rate (H460; 0.063 μM) of the same compound?
A: 99.3%

Q: And the Survival rate (H460; 0.25 μM)?
A: 97.3%

Q: What about the Survival rate (H460; 1 μM) of the same compound?
A: 93.6%

Q: And the Survival rate (H460; 4 μM)?
A: 19.1%

Q: And the Survival rate (N87; 0.016 μM)?
A: 92.9%

Q: What about the Survival rate (N87; 0.063 μM) of the same compound?
A: 96.7%

Q: And the Survival rate (N87; 0.25 μM)?
A: 97.2%

Q: And the Survival rate (N87; 1 μM)?
A: 77.1%

Q: And the Survival rate (N87; 4 μM)?
A: 40.3%

Q: And the Survival rate (Huh-7; 0.016 μM)?
A: 90.9%

Q: And the Survival rate (Huh-7; 0.063 μM)?
A: 88.2%

Q: And the Survival rate (Huh-7; 0.25 μM)?
A: 83.0%

Q: And the Survival rate (Huh-7; 1 μM)?
A: 65.4%

Q: And the Survival rate (Huh-7; 4 μM)?
A: 14.3%

Q: What about the Survival rate ([4]; 0.016 μM) of the same compound?
A: 96.8%

Q: What about the Survival rate ([4]; 0.063 μM) of the same compound?
A: 96.1%

Q: And the Survival rate ([4]; 0.25 μM)?
A: 91.0%

Q: What about the Survival rate ([4]; 1 μM) of the same compound?
A: 76.1%

Q: What about the Survival rate ([4]; 4 μM) of the same compound?
A: 39.1%

Q: What about the Survival rate (BGC823; 0.016 μM) of the same compound?
A: 96.6%

Q: What about the Survival rate (BGC823; 0.063 μM) of the same compound?
A: 93.2%

Q: And the Survival rate (BGC823; 0.25 μM)?
A: 89.1%

Q: And the Survival rate (BGC823; 1 μM)?
A: 74.3%

Q: And the Survival rate (BGC823; 4 μM)?
A: 27.7%

Q: And the Survival rate (HT-29; 0.016 μM)?
A: 97.5%

Q: What about the Survival rate (HT-29; 0.063 μM) of the same compound?
A: 94.3%

Q: And the Survival rate (HT-29; 0.25 μM)?
A: 90.9%

Q: What about the Survival rate (HT-29; 1 μM) of the same compound?
A: 79.0%

Q: What about the Survival rate (HT-29; 4 μM) of the same compound?
A: 27.1%

Q: What about the Survival rate (MIA-PaCa-2; 0.016 μM) of the same compound?
A: 91.6%

Q: What about the Survival rate (MIA-PaCa-2; 0.063 μM) of the same compound?
A: 92.2%

Q: And the Survival rate (MIA-PaCa-2; 0.25 μM)?
A: 91.2%

Q: What about the Survival rate (MIA-PaCa-2; 1 μM) of the same compound?
A: 66.0%

Q: And the Survival rate (MIA-PaCa-2; 4 μM)?
A: 22.2%

Q: With CSc1nccc(N2CCC(N(C)Cc3c(Cl)cccc3Cl)CC2)n1 [Example 49, N-methyl-N-(2,6-dichlorobenzyl)-N-[1-(2-methylthiopyrimidin-4-yl)piperidin-4-yl]amine] as the compound, how does the “inhibition of tumor cells versus cytotoxicity to normal cells” value [1] read?
A: certain inhibition and cytotoxicity to either tumor cells or normal cells, without significant difference

Q: What about the Survival rate (COLO205; 0.016 μM) of the same compound?
A: 98.1%

Q: What about the Survival rate (COLO205; 0.063 μM) of the same compound?
A: 94.2%

Q: And the Survival rate (COLO205; 0.25 μM)?
A: 95.8%

Q: What about the Survival rate (COLO205; 1 μM) of the same compound?
A: 83.9%

Q: And the Survival rate (COLO205; 4 μM)?
A: 4.1%

Q: And the Survival rate ([3]; 0.016 μM)?
A: 98.5%

Q: What about the Survival rate ([3]; 0.063 μM) of the same compound?
A: 97.3%

Q: What about the Survival rate ([3]; 0.25 μM) of the same compound?
A: 92.4%

Q: And the Survival rate ([3]; 1 μM)?
A: 79.8%

Q: What about the Survival rate ([3]; 4 μM) of the same compound?
A: 48.4%

Q: What about the Survival rate (HepG2; 0.016 μM) of the same compound?
A: 101.8%

Q: What about the Survival rate (HepG2; 0.063 μM) of the same compound?
A: 96.2%

Q: And the Survival rate (HepG2; 0.25 μM)?
A: 82.1%

Q: And the Survival rate (HepG2; 1 μM)?
A: 9.5%

Q: What about the Survival rate (HepG2; 4 μM) of the same compound?
A: 2.4%

Q: What about the Survival rate (H460; 0.016 μM) of the same compound?
A: 98.4%

Q: And the Survival rate (H460; 0.063 μM)?
A: 98.3%

Q: And the Survival rate (H460; 0.25 μM)?
A: 94.2%

Q: What about the Survival rate (H460; 1 μM) of the same compound?
A: 47.9%

Q: What about the Survival rate (H460; 4 μM) of the same compound?
A: 19.3%

Q: And the Survival rate (N87; 0.016 μM)?
A: 89.5%

Q: What about the Survival rate (N87; 0.063 μM) of the same compound?
A: 74.1%

Q: What about the Survival rate (N87; 0.25 μM) of the same compound?
A: 65.6%

Q: And the Survival rate (N87; 1 μM)?
A: 42.8%

Q: And the Survival rate (N87; 4 μM)?
A: 26%

Q: What about the Survival rate (Huh-7; 0.016 μM) of the same compound?
A: 91.3%

Q: What about the Survival rate (Huh-7; 0.063 μM) of the same compound?
A: 82%

Q: What about the Survival rate (Huh-7; 0.25 μM) of the same compound?
A: 70.5%

Q: What about the Survival rate (Huh-7; 1 μM) of the same compound?
A: 19.4%

Q: What about the Survival rate (Huh-7; 4 μM) of the same compound?
A: 12.8%

Q: And the Survival rate ([4]; 0.016 μM)?
A: 100.6%

Q: And the Survival rate ([4]; 0.063 μM)?
A: 100.1%

Q: And the Survival rate ([4]; 0.25 μM)?
A: 94.8%

Q: What about the Survival rate ([4]; 1 μM) of the same compound?
A: 80.8%

Q: And the Survival rate ([4]; 4 μM)?
A: 41.1%

Q: And the Survival rate (BGC823; 0.016 μM)?
A: 102.8%

Q: What about the Survival rate (BGC823; 0.063 μM) of the same compound?
A: 102.4%

Q: And the Survival rate (BGC823; 0.25 μM)?
A: 95.1%

Q: And the Survival rate (BGC823; 1 μM)?
A: 44%

Q: And the Survival rate (BGC823; 4 μM)?
A: 17.3%

Q: And the Survival rate (HT-29; 0.016 μM)?
A: 96.3%

Q: What about the Survival rate (HT-29; 0.063 μM) of the same compound?
A: 91%

Q: And the Survival rate (HT-29; 0.25 μM)?
A: 84.7%

Q: And the Survival rate (HT-29; 1 μM)?
A: 63.9%

Q: And the Survival rate (HT-29; 4 μM)?
A: 25.1%

Q: What about the Survival rate (MIA-PaCa-2; 0.016 μM) of the same compound?
A: 97.6%

Q: What about the Survival rate (MIA-PaCa-2; 0.063 μM) of the same compound?
A: 97.4%

Q: What about the Survival rate (MIA-PaCa-2; 0.25 μM) of the same compound?
A: 92.8%

Q: What about the Survival rate (MIA-PaCa-2; 1 μM) of the same compound?
A: 33.1%

Q: What about the Survival rate (MIA-PaCa-2; 4 μM) of the same compound?
A: 22.9%
